From paper PMC8330742, “New benzothieno[2,3-c]pyridines as non-steroidal CYP17 inhibitors: design, synthesis, anticancer screening, apoptosis induction, and in silico ADME profile studies” (Journal of Enzyme Inhibition and Medicinal Chemistry, 2021)
pIC50: −log10 of the molar value. Where “and” joins values, the source holds several entries; their conditions need not be identical. Identical values can stand only once.

What was measured:
RXF 393 = experiment: NCI-60 SRB screen; assay type: cell-based, human; conditions: RXF 393; for inhibition at 10 µM: single dose 10^−5 M, read-out: Growth inhibition (%);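 as to pIC50: half-maximal inhibitory concentration read as cell viability unlike GI50 net growth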
RPMI-8226 = experiment: NCI-60 SRB screen; assay type: cell-based; conditions: RPMI-8226; for inhibition at 10 µM: single dose 10^−5 M, read-out: Growth inhibition (%);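 as to pIC50: half-maximal inhibitory concentration read as cell viability unlike GI50 net growth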
A498 = experiment: NCI-60 SRB screen; assay type: cell-based, human; conditions: A498; for inhibition at 10 µM: single dose 10^−5 M, read-out: Growth inhibition (%);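 as to pIC50: half-maximal inhibitory concentration read as cell viability unlike GI50 net growth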
BT-549 = experiment: NCI-60 SRB screen; assay type: cell-based, human; conditions: BT-549; for inhibition at 10 µM: single dose 10^−5 M, read-out: Growth inhibition (%)
MDA-MB-468 = experiment: NCI-60 SRB screen; assay type: cell-based, human; conditions: MDA-MB-468; for inhibition at 10 µM: single dose 10^−5 M, read-out: Growth inhibition (%)
MCF7 = experiment: NCI-60 SRB screen; assay type: cell-based, human; conditions: for inhibition at 10 µM: MCF-7, single dose 10^−5 M, read-out: Growth inhibition (%)
DU-145 = experiment: NCI-60 SRB screen; assay type: cell-based, human; conditions: DU-145; for inhibition at 10 µM: single dose 10^−5 M, read-out: Growth inhibition (%)
[1] = tested on: renal cancer cell line (UO-31); experiment: MTT cytotoxicity assay; assay type: cell-based, human
Description: (§1) The MTT method for monitoring in vitro cytotoxicity was used with multiwell plates. Three human cell lines, namely prostate cancer cell line (PC-3), renal cancer cell line (UO-31), and breast cancer cell line (MCF-7) were obtained from the American Type Culture Collection ATCC, Manassas, VA, USA). The cells were trypsinized and seeded in 96 well plates with a density of 1.2 − 1.8 × 10,000 cells/well for 24 h at 37 °C. After treating the cells with five concentrations of compound 5c (0.01, 0.1, 1, 10, 100 µM), an MTT solution (Sigma Co., St. Louis, MO, USA) (5 mg/mL in phosphate buffer solution) was applied to each well and […]. The plates were cultivated in 5% CO2 for 4 h at 37 °C. Successively, the remaining formazan crystals were dissolved in 100 µl of DMSO, and the absorbance was determined with the ROBONIK P2000 spectrophotometer at a wavelength of 570 nm. The obtained values were analysed using Gen5 software (BioTek, UK). The proliferation percentage in each treated cell line was standardised based on their control wells. Both tests have been conducted in triplicate. The IC50 values were calculated using sigmoidal dose-response curve fitting models. […] Each test included a blank containing a complete medium without cells.

[2] = tested on: prostate cancer cell line (PC-3); experiment: MTT cytotoxicity assay; assay type: cell-based, human
Description: as §1

[3] = tested on: breast cancer cell line (MCF-7); experiment: MTT cytotoxicity assay; assay type: cell-based, human
Description: as §1

T-47D = experiment: NCI-60 SRB screen; assay type: cell-based, human; conditions: for inhibition at 10 µM: single dose 10^−5 M, read-out: Growth inhibition (%)
MDA-MB-231/ATCC = experiment: NCI-60 SRB screen; assay type: cell-based, human; conditions: for inhibition at 10 µM: MDA-MB-231, MDAMB231/ATCC, single dose 10^−5 M, read-out: Growth inhibition (%)
OVCAR-5 = experiment: NCI-60 SRB screen; assay type: cell-based, human; conditions: OVCAR-5; for inhibition at 10 µM: single dose 10^−5 M, read-out: Growth inhibition (%)
PC-3 = experiment: NCI-60 SRB screen; assay type: cell-based, human; conditions: PC-3; for inhibition at 10 µM: single dose 10^−5 M, read-out: Growth inhibition (%)
SF-539 = experiment: NCI-60 SRB screen; assay type: cell-based, human; conditions: SF-539, five dose;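 as to pIC50: half-maximal inhibitory concentration read as cell viability unlike GI50 net growth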
PC-3 cells = experiment: Annexin V-FITC apoptosis assay; assay type: cell-based, human; conditions: PC-3, 2.34 µM, 24 h
Description: PC-3 cells were placed in a 6-well plate at 1 × 10^5 conc. of cells per well, then incubated for 24 h. Afterward, the cells were treated with 2.34 µM of compound 5c or (0.1% DMSO) for 24 h, then harvested, washed with PBS, and stained with annexin V-FITC and PI in binding buffer ([…], […], and […] at pH 7.4) for 15 min at room temperature in the dark, then analysed by the flow cytometer.

plasma testosterone = experiment: Testosterone ELISA assay in mice prostate cancer model; assay type: in vivo
Description: A total of 16 mice from the TRAMP/FVB background ([…], male, average 45 days, average weight […], mice with prostate cancer) were taken and divided into 2 groups with 8 animals in each group. One group of mice was given a drug in 0.2 ml of DMSO and phosphate-buffered saline (1:10) ratio (5 mg/kg body weight, i.p., 5 days a week). The control group animals were treated with 0.2 ml of DMSO and phosphate-buffered saline (1:10) ratio. A total of eight mice, four animals from each group, were examined at 13 weeks of age, and the remaining animals from each group were examined at 20 weeks for prostate tumour development. Treatment was stopped 24 h before killing the animals.
The BioVendor mouse/rat testosterone ELISA assay is a competitive immunoassay for the measurement of testosterone in rat and mouse serum or plasma based on the principle of competitive binding. An unknown amount of testosterone present in the sample (plasma or serum) and a known amount of testosterone conjugated to horseradish peroxidase compete for the binding sites of testosterone antiserum coated to the wells of a microplate. The sample was incubated with the microplate for 1 h, then washed four times. The HRP substrate solution was added followed by the stop solution. Colour change has been observed, and the optical density was measured at 450 nm.
Assay procedures: Sufficient number of microplate wells were prepared to accommodate standard and samples in duplicates. The standard, sample, and control (10 µL each) were dispensed with new disposable tips into appropriate wells. Incubation buffer 100 µL was dispensed into each well. Afterward, enzyme conjugate (50 µL) was added to each well and incubated for 60 min at room temperature on a microplate mixer. The content of the wells was discarded, and the wells were rinsed 4 times with diluted wash solution (300 µL per well). The substrate solution (200 µL) was added to each well and incubated in the dark without shaking for 30 min. The reaction was stopped by adding a stop solution (2 N hydrochloric acid solution, 50 µL) to each well. The absorbance of each well was determined at 450 nm.

SNB-75 = experiment: NCI-60 SRB screen; assay type: cell-based, human; conditions: SNB-75, five dose
U251 = experiment: NCI-60 SRB screen; assay type: cell-based, human; conditions: U251, five dose
SNB-19 = experiment: NCI-60 SRB screen; assay type: cell-based; conditions: SNB-19, five dose
[4] = Homo sapiens, MDA-MB-231/ATCC, five dose

SMILES: COc1ccc(C2NC(=O)C(C#N)c3c2sc2c(F)cccc32)cc1 (stereo not shown) [Compound 5b, 4-Cyano-8-fluoro-1-(4-methoxyphenyl)-1,2-dihydro[1]benzothieno[2,3-c] pyridin-3(4H)-one]
- inhibition at 10 µM (RXF 393; Homo sapiens): 44.1%
- inhibition at 10 µM (RPMI-8226; Homo sapiens): 36.9%
- inhibition at 10 µM (A498; Homo sapiens): 68.8%
- inhibition at 10 µM (BT-549; Homo sapiens): 44.6%
- inhibition at 10 µM (MDA-MB-468; Homo sapiens): 66.3%
- inhibition at 10 µM (MCF7; Homo sapiens): 67.4%
- inhibition at 10 µM (DU-145; Homo sapiens): 35.2%
- potency compared to staurosporine [1]: moderate activity
- potency compared to staurosporine [2]: moderate activity
- potency compared to staurosporine [3]: moderate activity
- inhibition at 10 µM (T-47D; Homo sapiens, T47D): 19.9%
- melting point: 103 to 105 °C
- inhibition at 10 µM (MDA-MB-231/ATCC; Homo sapiens): 28.8%
- inhibition at 10 µM (OVCAR-5; Homo sapiens): 14.4%
- inhibition at 10 µM (PC-3; Homo sapiens): 50.6%

SMILES: N#CC1C(=O)NC(c2ccccc2[N+](=O)[O-])c2sc3c(F)cccc3c21 (stereo not shown) [Compound 5c, 4-Cyano-8-fluoro-1-(2-nitrophenyl)-1,2-dihydro[1]benzothieno[2,3-c] pyridin-3(4H)-one]
- GI50 (RXF 393; Homo sapiens, five dose): 11.3 µM
- pIC50 (RXF 393; Homo sapiens, five dose): 4.43
- inhibition at 10 µM (RXF 393; Homo sapiens): 30.1%
- TGI (RXF 393; five dose): 100 µM
- GI50 (RPMI-8226; Homo sapiens, five dose): 10.6 µM
- pIC50 (RPMI-8226; Homo sapiens, five dose): 4.46
- LC50 (RPMI-8226; Homo sapiens, five dose): > 100 µM
- inhibition at 10 µM (RPMI-8226; Homo sapiens): 58.8%
- TGI (RPMI-8226; five dose): 100 µM
- TGI (A498; five dose): 5.98 µM
- GI50 (A498; Homo sapiens, five dose): 1.32 µM
- pIC50 (A498; Homo sapiens, five dose): 5.51
- inhibition at 10 µM (A498; Homo sapiens): 161%
- GI50 (SF-539; Homo sapiens): 23 µM
- pIC50 (SF-539; Homo sapiens): 4.33
- TGI (SF-539): 100 µM
- Apoptosis total (% of cells) (PC-3 cells): 42.55%
- Early apoptosis (% of cells) (PC-3 cells): 1.66%
- Late apoptosis (% of cells) (PC-3 cells): 26.67%
- Necrosis (% of cells) (PC-3 cells): 14.22%
- elevation in necrosis vs control (PC-3 cells): 7.68 fold
- increase in early apoptotic cells vs control (PC-3 cells): 6.64 fold
- increase in late apoptotic cells vs control (PC-3 cells): 140.36 fold
- total increase vs control (PC-3 cells): 18.58 fold
- TGI (BT-549; five dose): 100 µM
- GI50 (BT-549; Homo sapiens, five dose): 16.5 µM
- pIC50 (BT-549; Homo sapiens, five dose): 4.14
- inhibition at 10 µM (BT-549; Homo sapiens): 10.8%
- potency relative to abiraterone (testosterone inhibition) (plasma testosterone): 1.1 folds
- Plasma testosterone aver. conc. (plasma testosterone; 5 mg/kg i.p., 5 days a week, ELISA, 5 mg/kg): 12.26 nM and 12.26 ± 0.17 nM
- GI50 (SNB-75; Homo sapiens): 6.12 µM
- pIC50 (SNB-75; Homo sapiens): < 4.00
- TGI (SNB-75): 100 µM
- GI50 (U251; Homo sapiens, U-251): 2.5 µM
- pIC50 (U251; Homo sapiens, U-251): 4.90
- TGI (U251): 100 µM
- GI50 (MDA-MB-468; Homo sapiens, five dose): 0.15 µM
- pIC50 (MDA-MB-468; Homo sapiens, five dose): 6.62
- inhibition at 10 µM (MDA-MB-468; Homo sapiens): 149%
- TGI (MDA-MB-468; five dose): 0.65 µM
- inhibition at 10 µM (MCF7; Homo sapiens): 76.4%
- GI50 (MCF7; Homo sapiens, five dose): 0.26 µM
- pIC50 (MCF7; Homo sapiens, five dose): 6.26
- TGI (MCF7; five dose): 10.00 µM
- TGI (DU-145; five dose): 100 µM
- GI50 (DU-145; Homo sapiens, five dose): 10.5 µM
- pIC50 (DU-145; Homo sapiens, five dose): 4.72
- inhibition at 10 µM (DU-145; Homo sapiens): 10.1%
- GI50 (SNB-19; Homo sapiens): 24.6 µM
- pIC50 (SNB-19; Homo sapiens): 4.35
- LC50 (SNB-19; Homo sapiens): > 100 µM
- TGI (SNB-19): 100 µM
- potency compared to staurosporine [1]: higher potency
- potency compared to staurosporine [2]: higher potency
- potency relative to abiraterone [2]: fourfold
- pIC50 ([2]; Homo sapiens): 5.68
- potency compared to staurosporine [3]: half potency
- GI50 (T-47D; Homo sapiens, T47D, five dose): 0.32 µM
- pIC50 (T-47D; Homo sapiens, T47D, five dose): < 4.00
- inhibition at 10 µM (T-47D; Homo sapiens, T47D): 97.5%
- TGI (T-47D; five dose): 100 µM
- inhibition at 10 µM (MDA-MB-231/ATCC; Homo sapiens): 24.5%
- GI50 (MDA-MB-231/ATCC; [4]): 11.6 µM
- pIC50 (MDA-MB-231/ATCC; [4]): 4.48
- TGI (MDA-MB-231/ATCC; MDA-MB-231/ATCC, five dose): 100 µM
- GI50 (OVCAR-5; Homo sapiens, five dose): 0.73 µM
- pIC50 (OVCAR-5; Homo sapiens, five dose): 5.47
- inhibition at 10 µM (OVCAR-5; Homo sapiens): 115%
- TGI (OVCAR-5; five dose): 100 µM
- GI50 (PC-3; Homo sapiens, five dose): 13.6 µM
- pIC50 (PC-3; Homo sapiens, five dose): 4.60
- inhibition at 10 µM (PC-3; Homo sapiens): 20%
- TGI (PC-3; five dose): 100 µM
